pIC50: −log10 of the molar value.
What was measured:
[1] = tested on: MIA PaCa-2 (KRAS G12C) cells; test: Cellular pERK HTRF assay (KRAS_G12C pERK); assay type: cell-based, human; details: Homo sapiens, MIA PaCa-2, 4 hours incubation, read-out: G12C_pERK
Procedure, shortened: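 Phospho-ERK1/2 HTRF readout (665 and 620 nm) in lysed MIA PaCa-2 cells, antibodies incubated overnight at room temperature. Cells seeded the day before and treated with G12C compounds for 4 h at 37 °C; IC50 fitted to percent inhibition against log inhibitor concentration.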

KRAS G12C = KRAS G12C (Homo sapiens, UniProt P01116, G12C); test: GDP-GTP exchange assay (KRAS_G12C exchange); assay type: biochemical; details: bodipy-GDP loaded KRAS G12C 2.5 nM, SOS1 150 nM, GppNHp; 2 hours pre-incubation, 2 hours reaction; read-out: G12C_exchange
Sequence of KRAS G12C (P01116 1-188 isoform P01116-2 G12C): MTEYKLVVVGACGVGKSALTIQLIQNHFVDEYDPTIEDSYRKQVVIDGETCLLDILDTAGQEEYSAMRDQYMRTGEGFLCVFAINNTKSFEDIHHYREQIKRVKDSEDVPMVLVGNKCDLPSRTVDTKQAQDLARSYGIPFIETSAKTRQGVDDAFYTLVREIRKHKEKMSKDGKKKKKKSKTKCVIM
Procedure, shortened: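 Fluorescence exchange of bodipy-GDP for GppNHp, SOS1-driven, read at 485/520 nm; IC50 from four-parameter variable-slope fit. Both mutants used 2.5 nM final labelled protein and a 2 h compound pre-incubation. G12C reaction had 500 uM GppNHp and 150 nM SOS1 for 2 h; G12D ran 4 h.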

SMILES	pIC50 [1]	pIC50 (KRAS G12C)
Cc1nccn1-c1nc2c(F)c(-c3ccc(F)cc3)c(Cl)cc2c2c1ncn2[C@H]1CCN(C(=O)/C=C/CF)[C@H](CC#N)C1 [Example 125, 2-((2S,4S)-4-(8-chloro-6-fluoro-7-(4-fluorophenyl)-4-(2-methyl-1H-imidazol-1-yl)-1H-imidazo[4,5-c]quinolin-1-yl)-1-((E)-4-fluorobut-2-enoyl)piperidin-2-yl)acetonitrile]	≥ 7.00	≥ 7.00
C=CC(=O)N1CC[C@H](n2nnc3c(N4CC(C)(N(C)C)C4)nc4c(F)c(-c5ccc(F)cc5)c(Cl)cc4c32)C[C@H]1CC#N [Example 126, 2-((2S,4S)-1-acryloyl-4-(8-chloro-4-(3-(dimethylamino)-3-methylazetidin-1-yl)-6-fluoro-7-(4-fluorophenyl)-1H-[1,2,3]triazolo[4,5-c]quinolin-1-yl)piperidin-2-yl)acetonitrile]	≥ 7.00	≥ 7.00
C=CC(=O)N1CC[C@H](n2nnc3c(N4CC(C)(N(C)C)C4)nc4c(F)c(-c5ccc(F)cc5)c(C)cc4c32)C[C@H]1CC#N [Example 127, 2-((2S,4S)-1-acryloyl-4-(4-(3-(dimethylamino)-3-methylazetidin-1-yl)-6-fluoro-7-(4-fluorophenyl)-8-methyl-1H-[1,2,3]triazolo[4,5-c]quinolin-1-yl)piperidin-2-yl)acetonitrile]	≥ 7.00	≥ 7.00
C=CC(=O)N1CC[C@H](n2nnc3c(O[C@@H](C)CN(C)C)nc4c(F)c(-c5ccc(F)cc5)c(Cl)cc4c32)C[C@H]1CC#N [Example 128, 2-((2S,4S)-1-acryloyl-4-(8-chloro-4-(((S)-1-(dimethylamino)propan-2-yl)oxy)-6-fluoro-7-(4-fluorophenyl)-1H-[1,2,3]triazolo[4,5-c]quinolin-1-yl)piperidin-2-yl)acetonitrile]	≥ 7.00	≥ 7.00
CC#CC(=O)N1CC[C@H](n2nnc3c(O[C@@H](C)CN(C)C)nc4c(F)c(-c5ccc(F)cc5)c(Cl)cc4c32)C[C@H]1CC#N [Example 129, 2-((2S,4S)-1-(but-2-ynoyl)-4-(8-chloro-4-(((S)-1-(dimethylamino)propan-2-yl)oxy)-6-fluoro-7-(4-fluorophenyl)-1H-[1,2,3]triazolo[4,5-c]quinolin-1-yl)piperidin-2-yl)acetonitrile]	≥ 7.00	≥ 7.00
C[C@@H](CN(C)C)Oc1nc2c(F)c(-c3ccc(F)cc3)c(Cl)cc2c2c1nnn2[C@H]1CCN(C(=O)/C=C/CF)[C@H](CC#N)C1 [Example 130, 2-((2S,4S)-4-(8-chloro-4-(((S)-1-(dimethylamino)propan-2-yl)oxy)-6-fluoro-7-(4-fluorophenyl)-1H-[1,2,3]triazolo[4,5-c]quinolin-1-yl)-1-((E)-4-fluorobut-2-enoyl)piperidin-2-yl)acetonitrile]	≥ 7.00	≥ 7.00
C=CC(=O)N1CC[C@H](n2nnc3c(OC[C@@H]4CCCN4C)nc4c(F)c(-c5ccc(F)cc5)c(Cl)cc4c32)C[C@H]1CC#N [Example 131, 2-((2S,4S)-1-acryloyl-4-(8-chloro-6-fluoro-7-(4-fluorophenyl)-4-(((S)-1-methylpyrrolidin-2-yl)methoxy)-1H-[1,2,3]triazolo[4,5-c]quinolin-1-yl)piperidin-2-yl)acetonitrile]	≥ 7.00	≥ 7.00
C=CC(=O)N1CC[C@H](n2nnc3c(O[C@@H](C)CN(C)C)nc4c(F)c(-c5ccc(F)cc5)c(C)cc4c32)C[C@H]1CC#N [Example 132, 2-((2S,4S)-1-acryloyl-4-(4-(((S)-1-(dimethylamino)propan-2-yl)oxy)-6-fluoro-7-(4-fluorophenyl)-8-methyl-1H-[1,2,3]triazolo[4,5-c]quinolin-1-yl)piperidin-2-yl)acetonitrile]	≥ 7.00	≥ 7.00
CC#CC(=O)N1CC[C@H](n2nnc3c(O[C@@H](C)CN(C)C)nc4c(F)c(-c5ccc(F)cc5)c(C)cc4c32)C[C@H]1CC#N [Example 133, 2-((2S,4S)-1-(but-2-ynoyl)-4-(4-(((S)-1-(dimethylamino)propan-2-yl)oxy)-6-fluoro-7-(4-fluorophenyl)-8-methyl-1H-[1,2,3]triazolo[4,5-c]quinolin-1-yl)piperidin-2-yl)acetonitrile]	≥ 7.00	≥ 7.00
Cc1cc2c(nc(O[C@@H](C)CN(C)C)c3nnn([C@H]4CCN(C(=O)/C=C/CF)[C@H](CC#N)C4)c32)c(F)c1-c1ccc(F)cc1 [Example 134, 2-((2S,4S)-4-(4-(((S)-1-(dimethylamino)propan-2-yl)oxy)-6-fluoro-7-(4-fluorophenyl)-8-methyl-1H-[1,2,3]triazolo[4,5-c]quinolin-1-yl)-1-((E)-4-fluorobut-2-enoyl)piperidin-2-yl)acetonitrile]	≥ 7.00	≥ 7.00

Next, values leading:

pIC50 [1]	pIC50 (KRAS G12C)	SMILES
≥ 7.00	≥ 7.00	C=CC(=O)N1CC[C@H](n2nnc3c(N4CC(N(C)C)C4)nc4c(F)c(-c5cccc(Cl)c5Cl)c(Cl)cc4c32)C[C@H]1CC#N [Example 113, 2-((2S,4S)-1-acryloyl-4-(8-chloro-7-(2,3-dichlorophenyl)-4-(3-(dimethylamino)azetidin-1-yl)-6-fluoro-1H-[1,2,3]triazolo[4,5-c]quinolin-1-yl)piperidin-2-yl)acetonitrile]
≥ 7.00	≥ 7.00	C=CC(=O)N1CC[C@H](n2nnc3c(N4CC(N(C)C)C4)nc4c(F)c(-c5cccc(C)c5)c(Cl)cc4c32)C[C@H]1CC#N [Example 114, 2-((2S,4S)-1-acryloyl-4-(8-chloro-4-(3-(dimethylamino)azetidin-1-yl)-6-fluoro-7-(m-tolyl)-1H-[1,2,3]triazolo[4,5-c]quinolin-1-yl)piperidin-2-yl)acetonitrile]
≥ 7.00	≥ 7.00	C=CC(=O)N1CC[C@H](n2nnc3c(N4CC(N(C)C)C4)nc4c(F)c(-c5cccc(C#N)c5C)c(Cl)cc4c32)C[C@H]1CC#N [Example 115, 3-(1-((2S,4S)-1-acryloyl-2-(cyanomethyl)piperidin-4-yl)-8-chloro-4-(3-(dimethylamino)azetidin-1-yl)-6-fluoro-1H-[1,2,3]triazolo[4,5-c]quinolin-7-yl)-2-methylbenzonitrile]
≥ 7.00	≥ 7.00	C=CC(=O)N1CC[C@H](n2nnc3c(N4CC(N(C)C)C4)nc4c(F)c(-c5ccc(F)c(C)c5C)c(Cl)cc4c32)C[C@H]1CC#N [Example 116, 2-((2S,4S)-1-acryloyl-4-(8-chloro-4-(3-(dimethylamino)azetidin-1-yl)-6-fluoro-7-(4-fluoro-2,3-dimethylphenyl)-1H-[1,2,3]triazolo[4,5-c]quinolin-1-yl)piperidin-2-yl)acetonitrile]
≥ 7.00	≥ 7.00	C=CC(=O)N1CC[C@H](n2nnc3c(N4CC(N(C)C)C4)nc4c(F)c(-c5ccccc5C5CC5)c(Cl)cc4c32)C[C@H]1CC#N [Example 117, 2-((2S,4S)-1-acryloyl-4-(8-chloro-7-(2-cyclopropylphenyl)-4-(3-(dimethylamino)azetidin-1-yl)-6-fluoro-1H-[1,2,3]triazolo[4,5-c]quinolin-1-yl)piperidin-2-yl)acetonitrile]
≥ 7.00	≥ 7.00	C=CC(=O)N1CC[C@H](n2cnc3c(N4CC(C)(N(C)C)C4)nc4c(F)c(-c5ccc(F)cc5)c(Cl)cc4c32)C[C@H]1CC#N [Example 120, 2-((2S,4S)-1-acryloyl-4-(8-chloro-4-(3-(dimethylamino)-3-methylazetidin-1-yl)-6-fluoro-7-(4-fluorophenyl)-1H-imidazo[4,5-c]quinolin-1-yl)piperidin-2-yl)acetonitrile]
≥ 7.00	≥ 7.00	C=CC(=O)N1CC[C@H](n2cnc3c(N4CC(C)(N(C)C)C4)nc4c(F)c(-c5ccc(F)cc5)c(C)cc4c32)C[C@H]1CC#N [Example 121, 2-((2S,4S)-1-acryloyl-4-(4-(3-(dimethylamino)-3-methylazetidin-1-yl)-6-fluoro-7-(4-fluorophenyl)-8-methyl-1H-imidazo[4,5-c]quinolin-1-yl)piperidin-2-yl)acetonitrile]
≥ 7.00	≥ 7.00	C=CC(=O)N1CC[C@H](n2cnc3c(O[C@@H](C)CN(C)C)nc4c(F)c(-c5ccc(F)cc5)c(Cl)cc4c32)C[C@H]1CC#N [Example 122, 2-((2S,4S)-1-acryloyl-4-(8-chloro-4-(((S)-1-(dimethyl-amino)propan-2-yl)oxy)-6-fluoro-7-(4-fluorophenyl)-1H-imidazo[4,5-c]quinolin-1-yl)piperidin-2-yl)acetonitrile]
≥ 7.00	≥ 7.00	C=CC(=O)N1CC[C@H](n2cnc3c(-n4ccnc4C)nc4c(F)c(-c5ccc(F)cc5)c(Cl)cc4c32)C[C@H]1CC#N [Example 123, 2-((2S,4S)-1-acryloyl-4-(8-chloro-6-fluoro-7-(4-fluorophenyl)-4-(2-methyl-1H-imidazol-1-yl)-1H-imidazo[4,5-c]quinolin-1-yl)piperidin-2-yl)acetonitrile]
≥ 7.00	≥ 7.00	Cc1nccn1-c1nc2c(F)c(-c3ccc(F)cc3)c(Cl)cc2c2c1ncn2[C@H]1CCN(C(=O)/C=C/CN(C)C)[C@H](CC#N)C1 [Example 124, 2-((2S,4S)-4-(8-chloro-6-fluoro-7-(4-fluorophenyl)-4-(2-methyl-1H-imidazol-1-yl)-1H-imidazo[4,5-c]quinolin-1-yl)-1-((E)-4-(dimethylamino)-but-2-enoyl)piperidin-2-yl)acetonitrile]

Reference: patent US20210269434A1, “TRICYCLIC COMPOUNDS AS INHIBITORS OF KRAS” (Incyte Corporation, priority 2020, published 2021)
